Where a name gives a salt, the structure may show the parent alone.

Regarding `CC(C)NCCOc1ccc2c(c1)c(S(=O)(=O)c1cccc3ccccc13)nn2C` (as salt: hydrochloride) [Example 45, Isopropyl-{2-[1-methyl-3-(naphthalene-1-sulfonyl)-1H-indazol-5-yloxy]-ethyl}-amine], the melting point (usually the temperature, or range, at which the solid turns liquid) is 274 to 276 °C (dec.). Take `CC(C)NCCOc1ccc2c(c1)c(S(=O)(=O)c1cccc3ccccc13)nn2Cc1cccc(Cl)c1` (as salt: hydrochloride) [Example 57, {2-[1-(3-Chloro-benzyl)-3-(naphthalene-1-sulfonyl)-1H-indazol-5-yloxy]-ethyl}-isopropyl-amine]: the melting point is 206 to 208 °C. For the compound `CN(C)CCN(C)Cc1ccc2[nH]nc(S(=O)(=O)c3cccc4ccccc34)c2c1` (as salt: hydrochloride) [Example 153, N,N, N′-Trimethyl-N′-{[3-(1-naphthylsulfonyl)-1H-indazol-5-yl]methyl}ethane-1,2-diamine], the melting point was over 200 °C. In the case of `O=S(=O)(c1cccc2ccccc12)c1n[nH]c2ccc(CN[C@H]3CCNC3)cc12` (as salt: hydrochloride) [Example 154, (3S)—N-{([3-(1-Naphthylsulfonyl)-1H-indazol-5-yl]methyl}pyrrolidin-3-amine Hydrochloride], the melting point is over 200 °C.

`NCCNCc1ccc2[nH]nc(S(=O)(=O)c3cccc4ccccc34)c2c1` (as salt: hydrochloride) [Example 155, N{[3-(1-Naphthylsulfonyl)-1H-indazol-5yl]methyl}ethane-1.2-diamine] returned a melting point of over 200 °C.

As for `CN(C)CCc1cccc2c(S(=O)(=O)c3ccccc3)n[nH]c12` (as salt: hydrochloride) [Example 171, N,N-Dimethyl-N-{2-[3-(phenylsulfonyl)-1H-indazol-7-yl]ethyl}amine hydrochloride], the melting point fell in the range of 76 to 80 °C. Compound `O=S(=O)(c1ccccc1)c1n[nH]c2c(CCNC3CC3)cccc12` (as salt: hydrochloride) [Example 172, N-{2-[3-(phenylsulfonyl)-1H-indazol-7-yl]ethyl}cyclopropanamine hydrochloride] yielded a melting point of 115 to 117 °C. Compound `CN(C)CCc1ccc2[nH]nc(S(=O)(=O)c3ccccc3)c2c1` (as salt: hydrochloride) [Example 176, N,N-Dimethyl-N-{2-[3-(phenylsulfonyl)-1H-indazol-5-yl]ethyl}amine hydrochloride] had a melting point of 108 to 110 °C. In the case of `NCCCCc1ccc2[nH]nc(S(=O)(=O)c3ccccc3)c2c1` (as salt: hydrochloride) [Example 181, {4-[3-(Phenylsulfonyl)-1H-indazol-5-yl]butyl}amine hydrochloride], the melting point is 120 to 125 °C. To `CN(C)CCCc1ccc2[nH]nc(S(=O)(=O)c3cccc4ccccc34)c2c1` (as salt: hydrochloride) [Example 182, N,N-Dimethyl-N-{3-[3-(naphthylsulfonyl)-1H-indazol-5-yl]propyl}amine hydrochloride] belongs 247 to 248 °C; to `O=S(=O)(c1cccc2ccccc12)c1n[nH]c2ccc(CN3CCNCC3)cc12` (as salt: hydrochloride) [Example 195, 3-(1-Naphthylsulfonyl)-5-(piperazin-1-ylmethyl)-1H-indazole], over 200 °C. To `O=C(c1ccc2[nH]nc(S(=O)(=O)c3cccc4ccccc34)c2c1)N1CCNCC1` (as salt: hydrochloride) [Example 202, 3-(1-Naphthylsulfonyl)-5-(piperazin-1 ylcarbonyl)-1H-indazole] belongs over 200 °C; to `CN(C)CCCc1ccc2[nH]nc(S(=O)(=O)c3ccccc3)c2c1` (as salt: trifluoroacetate) [Example 177, N,N-Dimethyl-N-{3-[3-(phenylsulfonyl)-1H-indazol-5-yl]propyl}amine trifluoroacetate], 75 to 80 °C.

For the origin of these results see patent US7723329B2, “Substituted-3-sulfonylindazole derivatives as 5-hydroxytryptamine-6 ligands” (Wyeth LLC, priority 2005, dated 2010).
